# Results reported in US20050255509A1, “In vivo measurement of the relative fluxes through ribonucleotide reductase vs. deoxyribonucleoside pathways using isotopes” (KineMed, Inc., priority 2004, published 2005).
# How the values were obtained:
# [1] = target: T1, ribonucleotide reductase (RR) (Mus musculus, UniProt P07742+P11157); experiment: RR inhibition in tumor and bone marrow of EMT7 tumor-bearing mice over 5 days of chemotherapy; assay type: in vivo; conditions: balb/C mice with EMT7 tumors, 125 mg/kg Gem every other day or 500 mg/kg HU daily, relative to untreated (control) mice
# T1 construct: from tissue; host or cells: EMT7 mouse mammary carcinoma tumour and bone marrow of female balb/C mice
# T1 sequence (P07742 1-792): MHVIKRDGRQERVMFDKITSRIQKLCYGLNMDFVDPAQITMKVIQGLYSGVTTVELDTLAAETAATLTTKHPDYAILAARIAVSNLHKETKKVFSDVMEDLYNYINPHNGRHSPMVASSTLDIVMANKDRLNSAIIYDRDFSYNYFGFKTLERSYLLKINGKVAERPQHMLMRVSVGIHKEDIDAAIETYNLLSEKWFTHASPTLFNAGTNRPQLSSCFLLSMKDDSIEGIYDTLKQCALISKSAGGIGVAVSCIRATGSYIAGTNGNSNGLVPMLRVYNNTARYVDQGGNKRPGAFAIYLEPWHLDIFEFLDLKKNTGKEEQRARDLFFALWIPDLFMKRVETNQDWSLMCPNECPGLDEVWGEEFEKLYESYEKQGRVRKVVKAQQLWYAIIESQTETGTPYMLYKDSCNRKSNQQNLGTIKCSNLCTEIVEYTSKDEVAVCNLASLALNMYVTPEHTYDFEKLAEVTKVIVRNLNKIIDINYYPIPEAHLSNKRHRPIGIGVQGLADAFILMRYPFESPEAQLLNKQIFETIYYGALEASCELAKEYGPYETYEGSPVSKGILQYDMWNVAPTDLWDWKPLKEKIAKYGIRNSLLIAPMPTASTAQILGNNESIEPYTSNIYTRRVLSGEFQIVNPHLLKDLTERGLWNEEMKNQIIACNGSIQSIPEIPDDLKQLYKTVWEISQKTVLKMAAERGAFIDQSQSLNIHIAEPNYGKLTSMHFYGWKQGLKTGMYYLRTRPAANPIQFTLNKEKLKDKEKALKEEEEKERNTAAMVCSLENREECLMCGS
# T1 sequence (P11157 1-390): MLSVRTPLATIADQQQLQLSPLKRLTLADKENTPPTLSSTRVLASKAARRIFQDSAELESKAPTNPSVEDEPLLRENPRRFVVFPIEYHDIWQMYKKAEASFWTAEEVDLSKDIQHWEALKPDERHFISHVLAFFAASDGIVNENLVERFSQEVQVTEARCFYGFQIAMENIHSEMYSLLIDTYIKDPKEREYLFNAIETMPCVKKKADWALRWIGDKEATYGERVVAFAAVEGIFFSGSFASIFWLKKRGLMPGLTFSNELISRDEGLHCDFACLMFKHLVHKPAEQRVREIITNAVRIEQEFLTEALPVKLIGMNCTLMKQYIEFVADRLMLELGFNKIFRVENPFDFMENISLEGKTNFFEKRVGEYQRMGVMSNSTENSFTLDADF
# Description: Female balb/C mice were implanted subcutaneously with approximately 10^6 EMT7 mouse mammary carcinoma cells in matrigel and allowed to reach ca.1500 mm^3.
# (§1) Mice were labeled with 2H2O with an i.p. bolus and treatment with either 125 mg/kg gemcitabine (Gem) or 500 mg/kg HU began. Gem was administered every other day, HU daily. At then end of 5 days tumors were removed, measured, homogenized and DNA was isolated as described, supra. Bone marrow was isolated using standard techniques. Bone marrow DNA was isolated as described, supra. GC/MS analysis was described as carried out, and calculations of RR activity and cell proliferation were carried out for both tumor and bone marrow tissues. Tumor volume was also measured by use of a caliper as is standard in the art.
# [2] = target: T2, ribonucleotide reductase (RR) (Homo sapiens, UniProt P23921+P31350); experiment: RR activity measured by 2H2O in SW1573 cells; assay type: cell-based; design: endogenous in cells; host or cells: SW1573 non-small cell lung carcinoma cells; conditions: 24 hours; for RR activity, % of control: level reached with increasing doses
# T2 sequence (P23921 1-792): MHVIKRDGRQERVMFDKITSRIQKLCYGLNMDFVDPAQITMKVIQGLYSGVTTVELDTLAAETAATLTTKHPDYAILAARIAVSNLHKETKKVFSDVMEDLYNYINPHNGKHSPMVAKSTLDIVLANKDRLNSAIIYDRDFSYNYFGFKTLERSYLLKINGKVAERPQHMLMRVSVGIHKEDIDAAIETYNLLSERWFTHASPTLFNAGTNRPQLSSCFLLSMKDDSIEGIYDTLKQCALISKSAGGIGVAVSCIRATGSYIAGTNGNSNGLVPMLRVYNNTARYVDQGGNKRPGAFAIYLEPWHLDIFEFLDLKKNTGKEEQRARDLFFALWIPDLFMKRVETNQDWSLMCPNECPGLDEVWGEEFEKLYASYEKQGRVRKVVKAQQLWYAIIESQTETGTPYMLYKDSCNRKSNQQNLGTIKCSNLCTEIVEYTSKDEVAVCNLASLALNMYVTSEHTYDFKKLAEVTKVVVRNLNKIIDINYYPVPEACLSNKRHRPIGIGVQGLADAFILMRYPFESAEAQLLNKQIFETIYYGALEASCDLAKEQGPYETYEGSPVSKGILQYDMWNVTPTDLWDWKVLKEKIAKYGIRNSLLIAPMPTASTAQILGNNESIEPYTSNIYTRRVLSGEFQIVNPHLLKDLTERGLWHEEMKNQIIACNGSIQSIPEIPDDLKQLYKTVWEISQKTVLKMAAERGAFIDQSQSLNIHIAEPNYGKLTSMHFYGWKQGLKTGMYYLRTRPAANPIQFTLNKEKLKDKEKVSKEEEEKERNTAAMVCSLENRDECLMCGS
# T2 sequence (P31350 1-389): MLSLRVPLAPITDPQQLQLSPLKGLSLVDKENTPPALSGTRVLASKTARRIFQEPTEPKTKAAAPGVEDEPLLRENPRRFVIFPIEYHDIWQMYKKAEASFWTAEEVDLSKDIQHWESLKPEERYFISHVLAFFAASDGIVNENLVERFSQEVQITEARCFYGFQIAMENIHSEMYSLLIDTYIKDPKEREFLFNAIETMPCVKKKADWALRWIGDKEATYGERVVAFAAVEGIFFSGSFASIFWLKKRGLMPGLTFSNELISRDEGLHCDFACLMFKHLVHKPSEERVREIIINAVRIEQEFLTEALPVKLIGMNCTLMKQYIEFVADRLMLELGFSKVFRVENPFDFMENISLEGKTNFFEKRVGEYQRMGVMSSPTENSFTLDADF
# Description: Ribonucleotide reductase catalyzes the conversion of ribonucleotides to deoxyribonucleotides (FIG. 1A). A unique feature of RR is the response of nucleoside metabolism to its inhibition. When RR is inhibited, the activity of thymidine kinase is increased. […] Traditionally, this effect is assayed in vitro by measuring the increase in the concentration of free TTP pool relative to the other deoxynucleotides. […] The salvage of deoxyadenosine is very low in normal cells allowing the measurement of DNA synthesis from the incorporation of de novo deoxyadenosine (see supra); furthermore since dAk activity is not affected by RR inhibition it can be used as the denominator for calculating fractional de novo thymidine synthesis. The relative inhibition of RR can be inferred from the reduction in de novo thymidine incorporation relative to dA into DNA. In a preferred embodiment of the invention, once the isotopic enrichment of dA and dT have been determined (as described, supra) for both a test and control subject or sample, the ratio of dT enrichment to dA enrichment is compared.
# (§2) Non-small cell lung carcinoma cells (SW1573) were grown under standard conditions to approximately 50% confluence. Media was removed and replaced with media containing 4% ^2H2O, 1 µM dN's and hydroxyurea or gemcitabine at various concentrations. Cells were grown for and additional 24 hours after which they were harvested and frozen. Cell proliferation and RR inhibition was performed as described, supra.
# [3] = system: EMT7 mouse mammary carcinoma cells; experiment: In vivo tumor cell proliferation by 2H2O incorporation over 5 days of chemotherapy; conditions: balb/C mice with EMT7 tumors, 125 mg/kg Gem every other day or 500 mg/kg HU daily
# Description: as §1, with “Female balb/C mice were implanted subcutaneously with approximately 10^6 EMT7 mouse mammary carcinoma cells in matrigel and allowed to reach ca.1500 mm^3. Mice” for “Mice”
# [4] = target: T2, ribonucleotide reductase (RR); experiment: RR activity measured by 2H2O in hydroxyurea-treated MCF7 cells; assay type: cell-based; design: endogenous in cells; conditions: 24 hours
# Description: Ribonucleotide reductase catalyzes the conversion of ribonucleotides to deoxyribonucleotides (FIG. 1A). A unique feature of RR is the response of nucleoside metabolism to its inhibition. When RR is inhibited, the activity of thymidine kinase is increased. […] Traditionally, this effect is assayed in vitro by measuring the increase in the concentration of free TTP pool relative to the other deoxynucleotides. […] In a preferred embodiment of the invention, once the isotopic enrichment of dA and dT have been determined (as described, supra) for both a test and control subject or sample, the ratio of dT enrichment to dA enrichment is compared.
# Mammary carcinoma cells (MCF7) were grown under standard conditions to approximately 50% confluence. […] Cells continued to grow for 24 hours after which they were harvested, counted by coulter counter, and frozen.
# Genomic DNA was isolated from frozen cells using a Qiagen Tissue Prep Kit according to the manufacturer's instructions. DNA digestion was performed after measuring the ratio of 260/280 to quantify the amount of isolated DNA. […]
# HPLC Purification: dA and T were then isolated at room temperature by using a Waters HPLC system coupled with a UV detector. […] Normal nucleosides (dC, dG, dT, dA) were detected by UV absorption at 254 nm. […]
# MCF7 cells = experiment: Cell proliferation in hydroxyurea-treated MCF7 cells (2H2O labeling and coulter counter); assay type: cell-based; conditions: 24 hours, hydroxyurea at various concentrations
# [5] = system: EMT7 mouse mammary carcinoma cells; experiment: Tumor volume by caliper over 5 days of chemotherapy; assay type: in vivo; conditions: balb/C mice with EMT7 tumors, 125 mg/kg Gem every other day or 500 mg/kg HU daily
# Description: as §1, with “Female balb/C mice were implanted subcutaneously with approximately 10^6 EMT7 mouse mammary carcinoma cells in matrigel and allowed to reach ca.1500 mm^3. Mice” for “Mice”
# SW1573 cells = experiment: Cell proliferation measured by 2H2O in SW1573 cells; assay type: cell-based; conditions: 24 hours
# Description: as §2
SMILES,bone marrow cell RR activity [1],tumor cell RR activity [1],concentration at which apparent maximal RR inhibition occurred [2],inhibition at 6 µM [2] [%],"RR activity, % of control [2]",tumor cell proliferation [3],RR activity ([4]; doses 50 μM HU and above),activity of RR ([4]; hydroxyurea at various concentrations),rate of cell proliferation (MCF7 cells),tumor volume [5],concentration at which inhibition of cell proliferation was evident (SW1573 cells) [µM],inhibition at 0.0016 µM ([2]; 1.6 nM) [%],RR activity ([2]; 48 nM)
NC(=O)NO [hydroxyurea],inhibited,inhibited,6 µM,80,−20 % of control,effect of HU and Gem on cell proliferation is observed,dramatically inhibited,reduces,reduces the rate of cell proliferation,no change,20,,
Nc1ccn([C@@H]2O[C@H](CO)[C@@H](O)C2(F)F)c(=O)n1 [gemcitabine],inhibited,inhibited,,,~0 % of control,effect of HU and Gem on cell proliferation is observed,,,,no change,,70,nearly abolishes
